Assay results from patent US20220347256A1, “COMPOSITION FOR PROMOTING HAIR GROWTH, AND ALLEVIATING AND TREATING HAIR LOSS INCLUDING SUBSTANCE P” (Biosolution Co., Ltd., priority 2019, published 2022).
Where no end group is shown, it is not given here.

Columns and labels:
C3H/HeN mice [1] = test: Maintenance of skin in growth phase in C3H mice with dexamethasone-induced regression phase (black skin area); assay type: in vivo
Method: More specifically, ketamine (Yuhan Co, Ltd, Korea) and rompun (Bayer Korea, Korea) were mixed to a final concentration of 24.2 mg/mL and 1.8 mg/mL, respectively, and then six-week-old female C3H/HeN mice (Orient Bio, Korea) were anesthetized with 80 μL of the anesthetic solution. After anesthesia, the hair on the back was removed using a clipper, and the remaining hair was completely removed using a hair removal cream. Then, twelve mice with clean skin without wounds or remaining hair at the hair removal site were selected. Three mice were placed in each group so that mice with similar hair cycle were placed in each group, and thereafter the experiment was carried out. The phosphate buffered saline or the composition including the substance P at 50% concentration was intradermally injected in an amount of 50 μL each for a total of 200 μL at four sites on the back of the mice, at intervals of 3 to 4 days for 7 days from 6 days after the hair removal using an insulin syringe. […] One-way ANOVA was carried out to examine the difference between the entire groups, and the difference between individual means was analyzed using Tukey's test. […] This statistic was analyzed based on Prism software version 5. […]

C3H/HeN mice [2] = test: Number of hair follicles in skin of C3H mice with dexamethasone-induced regression phase; assay type: in vivo; settings: in combination with dexamethasone
Method: More specifically, after the procedure of Example 7, the skin tissue of the mice was collected in the direction vertical to the hair follicles and fixed in a fixing solution (4% formaldehyde, Sigma, USA) for 24 hours. The hematoxylin and eosin staining was carried out in the same manner as in Example 8.
Additionally, the number of hair follicles in 1 mm of skin was measured for each group by the Image J program. The number of hair follicles were measured in 10 tissues per group by dividing the skin into D, SC, and W layers, and the results are shown in the graph of FIG. 15.

C3H/HeN mice [3] = test: H&E histology, thickness and shape of skin in C3H mice with dexamethasone-induced regression phase; assay type: in vivo; settings: in combination with dexamethasone
Method: More specifically, after the procedure of Example 7, the skin tissue of the mice was collected in the direction of the hair follicles and fixed in a fixing solution (4% formaldehyde, Sigma, USA) for 24 hours. […] Thereafter, an infiltration process was carried out to fill the penetrant into the tissue, followed by an embedding process to make a paraffin block. For hematoxylin (Sigma, USA) and eosin (Sigma, USA) staining, the paraffin block was cut into 8 μm and attached to slides (microscope slides, Marienfeld, Germany) coated with 2% 3-aminosilane, followed by drying in a 37° C. slide warmer for 12 hours. Thereafter, the slides were immersed in xylene four times for 7 minutes each through a deparaffinization process, and subjected to hydration for staining, and then washed with water. […] One-way ANOVA was carried out to examine the difference between the entire groups, and the difference between individual means was analyzed using Tukey's test. […] This statistic was analyzed based on Prism software version 5.
Additionally, the thickness of the dermis and the subcutaneous layers was confirmed by the Image J program. Skin thickness was measured by dividing the skin into the dermal layer (D), subcutaneous layer (SC), and whole layer (W), and 30 different areas were measured for each group and the results are shown in the graph of FIG. 13.

germinal matrix cells = test: MTT assay of germinal matrix cell proliferation; assay type: cell-based; settings: 24 hours, concentration groups 30% and 50%
Method: The effect of substance P on germinal matrix cell proliferation was analyzed by MTT assay.
More specifically, 1,000 μL of 0.5×10^5 CFU/mL germinal matrix cell suspension was added to a 12-well culture plate and incubated for 48 hours. The medium (alpha-Minimum Essential Medium, alpha-MEM+10% FBS+10 ng/ml bFGF) was removed, and then 900 μL of a fresh medium (alpha-Minimum Essential Medium, alpha-MEM+5% FBS+5 ng/ml bFGF) was dispensed into each well, and then 100 μL of the composition including substance P diluted with phosphate buffered saline (PBS) was inoculated at concentrations of 30% and 50%. Additionally, substance P (30% and 50%) at the same concentration as the composition including substance P was respectively mixed with phosphate buffered saline and treated. Meanwhile, 100 μL of phosphate buffered saline was used as a negative control group. After inoculation, cells were incubated at 37° C. for 24 hours, and then the medium was removed. Then, the cells were washed with the phosphate buffered saline three times. Subsequently, 900 μL of the medium was mixed with 100 μL of the MTT solution (0.5 mg/mL), and the mixed solution was treated to each well and allowed to react at 37° C. for 3 hours. Finally, the cells were washed with the phosphate buffered saline and stirred in 150 μL of isopropyl alcohol solution for 3 hours, and absorbance at 570 nm was measured.

dermal papilla cells = test: MTT assay of dermal papilla cell proliferation; assay type: cell-based; settings: 24 hours, concentration groups 30% and 50%
Method: The effect of substance P on dermal papilla cell proliferation was analyzed by MTT assay.
More specifically, 1,000 μL of 0.5×10^5 CFU/mL dermal papilla cell suspension was added to a 12-well culture plate and incubated for 48 hours. The medium (alpha-Minimum Essential Medium, alpha-MEM+10% FBS) was removed, and then 900 μL of a fresh medium (alpha-Minimum Essential Medium, alpha-MEM +5% FBS) was dispensed into each well, and then 100 μL of the composition including substance P diluted with phosphate buffered saline (PBS) was inoculated at concentrations of 30% and 50% (the substance P was contained at a concentration of 6 mg/mL and 10 mg/mL in the composition with concentrations of 30% and 50%, respectively). Additionally, substance P (30% and 50%) at the same concentrations as the composition including substance P was respectively mixed with phosphate buffered saline and treated.
Meanwhile, 100 μL of phosphate buffered saline was used as a negative control group. After inoculation, cells were incubated at 37° C. for 24 hours, and then the medium was removed. Then, the cells were washed with phosphate buffered saline three times. […] Finally, the cells were washed with phosphate buffered saline and stirred in 150 μL of isopropyl alcohol solution for 3 hours, and absorbance at 570 nm was measured.

Compound | inhibition of the induction of the regression phase by dexamethasone (C3H/HeN mice [1]; from black skin area) [%] | black-skinned back relative to the total skin (C3H/HeN mice [1]; in combination with dexamethasone, 17 days after hair removal, Image J) [%] | number of hair follicles maintained in the dermis compared to phosphate buffered saline (C3H/HeN mice [2]) | number of hair follicles maintained in the subcutaneous compared to phosphate buffered saline (C3H/HeN mice [2]) | number of hair follicles maintained in the whole skin compared to phosphate buffered saline (C3H/HeN mice [2]) | inhibition of the regression phase of the subcutaneous layer (SC) compared to phosphate buffered saline (C3H/HeN mice [3]) [%] | cell proliferation of germinal matrix cells (germinal matrix cells) [%] | cell proliferation of dermal papilla cells (dermal papilla cells) [%]
Nc1cc(N2CCCCC2)nc(N)[n+]1[O-] [minoxidil 2%, minoxidil] | 46 | 47 | about 1.4 times | about 56 times | about 3.7 times | 233 | – | –
Arg-Pro-Lys-Pro-Gln-Gln-Phe-Phe-Gly-Leu-Met-NH2 (RPKPQQFFGLM-NH2) [substance P, in phosphate buffered saline as comparison group] | – | – | – | – | – | – | ≤ 105 | 107
